{"source": "paper PMC8252455", "about": "“Prediction of a clinically effective dose of THY1773, a novel V 1B receptor antagonist, based on preclinical data” (Biopharmaceutics & Drug Disposition, 2021)", "key": {"CYP2D6": {"molecular_target": "T1, CYP2D6 (Homo sapiens, UniProt P10635)", "T1 construct": "THY1773 (500 nmol/L) was incubated with pooled HLMs (0.5 mg protein/ml); tissue Sekisui XenoTech, LLC; host or cells: pooled human liver microsomes (50 donors)", "T1 sequence (P10635 whole entry, canonical isoform)": "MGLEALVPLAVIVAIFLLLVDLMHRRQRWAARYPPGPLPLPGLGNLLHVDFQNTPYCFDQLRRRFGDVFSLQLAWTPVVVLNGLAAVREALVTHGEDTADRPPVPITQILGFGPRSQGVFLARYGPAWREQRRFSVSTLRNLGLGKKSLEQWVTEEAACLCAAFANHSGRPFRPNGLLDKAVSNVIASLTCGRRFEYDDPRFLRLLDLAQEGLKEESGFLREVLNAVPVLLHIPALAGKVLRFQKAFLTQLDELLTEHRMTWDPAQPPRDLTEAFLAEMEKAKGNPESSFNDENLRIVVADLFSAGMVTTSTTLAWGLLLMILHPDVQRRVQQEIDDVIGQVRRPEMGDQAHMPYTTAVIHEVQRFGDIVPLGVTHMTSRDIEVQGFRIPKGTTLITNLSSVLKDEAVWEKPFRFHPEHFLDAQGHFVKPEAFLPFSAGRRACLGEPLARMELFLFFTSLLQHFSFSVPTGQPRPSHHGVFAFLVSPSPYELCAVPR", "experiment": "Reaction phenotyping in HLMs with quinidine", "format": "in vitro ADME", "procedure": "Reaction phenotyping using cDNA expressed recombinant human CYP isoforms, CYP1A2, CYP2B6, CYP2C8, CYP2C9, CYP2C19, CYP2D6, and CYP3A4, was conducted. Each recombinant enzyme (100 pmol/ml) in potassium phosphate buffer (pH 7.4; 100 mmol/L for CYP3A4, 50 mmol/L for the others) was preincubated with [^3H]THY1773 (10 μmol/L) at 37°C for 5 min. The reactions were initiated by the addition of NADPH‐generating system (1 mmol/L NADP^+, 5 mmol/L G‐6‐P, 1 unit/ml G‐6‐PDH, and 5 mmol/L MgCl2) and incubated for 0 or 60 min. The reactions were terminated by the addition of an equal volume of acetonitrile/methanol (9:1, vol/vol), followed by centrifugation at 1650 × g for 10 min at 4°C. An aliquot of the supernatant was subjected to an Agilent 1200 HPLC system (Agilent Technologies, Inc.) equipped with a radiochemical flow detector (Radiomatic 625TR; Perkin Elmer, Inc.), and formation of metabolites was evaluated. Reaction phenotyping study was also conducted using HLMs and selective chemical inhibitors for CYP2D6 and CYP3A, which were assumed to have significant roles in THY1773 metabolism from recombinant metabolic stability. Quinidine (1 μmol/L) for CYP2D6 and ketoconazole (1 μmol/L) for CYP3A were used as selective inhibitors. THY1773 (500 nmol/L) was incubated with pooled HLMs (0.5 mg protein/ml) in potassium phosphate buffer (100 mmol/L, pH 7.4) in the absence or presence of the selective inhibitors. The reactions were initiated by the addition of NADPH generating system (1.3 mmol/L β‐NADP^+, 3.3 mmol/L G‐6‐P, 3.3 mmol/L MgCl2, and 0.4 units/ml G‐6‐PDH), and incubated at 37°C for 30 min. The reactions were terminated by the addition of two volumes of acetonitrile/methanol (9:1, vol/vol) containing the IS. […] The CLint was calculated by the method as described previously under metabolic stability in animal liver microsomes, and the fraction metabolized (fm) was calculated by Equation (1): (1) fm=1−(CLint, with inh/CLint) where CLint is intrinsic clearance without specific inhibitor and CLint,with inh is intrinsic clearance in the presence of specific inhibitor."}, "[1]": {"experiment": "Metabolic stability in dog liver microsomes", "format": "in vitro ADME", "settings": "1 μmol/L", "procedure": "The oxidative metabolism of THY1773 was evaluated in rat and dog liver microsomes. THY1773 (1 μmol/L) was incubated with pooled liver microsomes (0.25 mg protein/ml) in sodium–potassium phosphate buffer (pH 7.4) consisting of 100 mmol/L sodium phosphate, 100 mmol/L potassium chloride, 2.5 mmol/L magnesium chloride (MgCl2), 1.5 mmol/L glucose‐6‐phosphate (G‐6‐P), and 0.18 units/ml G‐6‐P dehydrogenase (G‐6‐PDH). The reactions were initiated by the addition of β‐nicotinamide–adenine dinucleotide phosphate, oxidized form (NADP^+, 0.16 mmol/L), and incubated for 10, 20, 30, 40, 50, and 60 min. […] The intrinsic clearance (CLint) was calculated by the substrate depletion method described by Naritomi et al. (2001).\nSince the CLliver was underestimated in rats and dogs from CLint in liver microsomes, the ratio of observed in vivo CLint and predicted CLint was calculated as the empirical scaling factor (ESF) for the extrapolation of CLliver from in vitro data. […] The total plasma clearance (CLtotal) was calculated by Equation (4): (4) CLtotal=QH×fu×(CLint/fu,mic)/QH+(fu/Rb)×(CLint/fu,mic)+CLrenal where QH is hepatic blood flow, fu is the free fraction in plasma, fu,mic is the fraction unbound in HLMs, Rb is blood‐to‐plasma ratio, and CLrenal is renal clearance. The fu,mic value was calculated using the Simcyp population based simulator (Version 16 R1; Simcyp Ltd.). […]"}, "[2]": {"experiment": "CLint in human liver microsomes (reaction phenotyping, no inhibitor)", "format": "in vitro ADME", "settings": "HLMs", "procedure": "Reaction phenotyping using cDNA expressed recombinant human CYP isoforms, CYP1A2, CYP2B6, CYP2C8, CYP2C9, CYP2C19, CYP2D6, and CYP3A4, was conducted. Each recombinant enzyme (100 pmol/ml) in potassium phosphate buffer (pH 7.4; 100 mmol/L for CYP3A4, 50 mmol/L for the others) was preincubated with [^3H]THY1773 (10 μmol/L) at 37°C for 5 min. The reactions were initiated by the addition of NADPH‐generating system (1 mmol/L NADP^+, 5 mmol/L G‐6‐P, 1 unit/ml G‐6‐PDH, and 5 mmol/L MgCl2) and incubated for 0 or 60 min. The reactions were terminated by the addition of an equal volume of acetonitrile/methanol (9:1, vol/vol), followed by centrifugation at 1650 × g for 10 min at 4°C. An aliquot of the supernatant was subjected to an Agilent 1200 HPLC system (Agilent Technologies, Inc.) equipped with a radiochemical flow detector (Radiomatic 625TR; Perkin Elmer, Inc.), and formation of metabolites was evaluated. […] The CLint was calculated by the method as described previously under metabolic stability in animal liver microsomes, and the fraction metabolized (fm) was calculated by Equation (1): (1) fm=1−(CLint, with inh/CLint) where CLint is intrinsic clearance without specific inhibitor and CLint,with inh is intrinsic clearance in the presence of specific inhibitor."}, "human V1B receptor": {"molecular_target": "T2, human V1B receptor (Homo sapiens, UniProt P47901)", "T2 construct": "expressed in transfected cells; host or cells: 1321-N1 cells (membranes)", "T2 sequence (P47901 1-424)": "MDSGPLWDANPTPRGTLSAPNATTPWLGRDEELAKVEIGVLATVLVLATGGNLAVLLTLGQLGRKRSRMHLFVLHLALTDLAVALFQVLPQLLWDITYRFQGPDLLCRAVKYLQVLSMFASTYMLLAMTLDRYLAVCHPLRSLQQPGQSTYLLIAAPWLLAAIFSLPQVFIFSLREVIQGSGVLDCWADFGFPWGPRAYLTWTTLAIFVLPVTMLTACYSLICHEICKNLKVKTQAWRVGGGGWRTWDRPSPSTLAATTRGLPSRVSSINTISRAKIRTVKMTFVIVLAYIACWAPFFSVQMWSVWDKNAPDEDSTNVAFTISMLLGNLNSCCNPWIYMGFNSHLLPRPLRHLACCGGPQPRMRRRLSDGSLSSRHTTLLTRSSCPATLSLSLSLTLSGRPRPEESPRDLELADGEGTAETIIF", "experiment": "In vitro [3H]AVP binding assay, membranes of 1321-N1 cells expressing human V1B receptor", "settings": "1321-N1 cell membranes, read-out: EC50 of RO model (Ki value for human V1B receptor binding inhibition)"}}, "data": [{"smiles": "CC(C)NC(=O)Cn1c(-c2cccc(Cl)c2)nn(-c2ccc(CCN3CCOCC3)cc2)c1=O", "note": "[THY1773]", "values": [{"measurement": "CLint", "setting": "CYP2D6; HLMs, with quinidine 1 μmol/L", "value": "10.2 ± 0.509", "unit": "µL/min/mg"}, {"measurement": "fm,CYP2D6", "setting": "CYP2D6; PBPK input, experimental data", "value": 0.089}, {"measurement": "fm (fraction metabolized)", "setting": "CYP2D6; by CYP2D6, HLMs, quinidine 1 μmol/L", "value": 0.0893}, {"measurement": "CLint in liver microsomes", "setting": "[1]", "value": 32.2, "unit": "μL/min/mg protein"}, {"measurement": "CLint", "setting": "[2]; 500 nmol/L, no inhibitor", "value": "11.2 ± 0.898", "unit": "µL/min/mg"}, {"measurement": "CLint (PBPK input, Model 1)", "setting": "[2]; experimental data", "value": "11.2 (Model 1) μl/min/mg protein"}, {"measurement": "Ki", "setting": "human V1B receptor", "value": 3.51, "unit": "nM"}]}]}
